Measurements from patent US11466020B2, “Compounds and compositions for inhibition and elimination of Zika infection and uses for same” (Cornell University, priority 2017, dated 2022).
Structures can show the parent of a compound that is named as a salt.

Test system: ZIKV (MR766 strain)
Test: Vero cell re-infection assay (infectious ZIKV in hNPC supernatant)
Format: cell-based, Zika virus
Details: supernatant of hNPC cultures, 72 h after infection
Procedure: (A) Scheme of high content chemical screen. (B) Chemical structure of hit compounds. (C) Inhibitory curve and IC50 of HH or AQ on hNPCs (n=6). (D-H) Immunocytochemistry analysis (D), the quantification of the infection rate (E), the quantification of proliferation rate (F), the quantification of cell apoptosis rate (G) and the normalized cell viability (H) of hNPCs at 72 h after ZIKV (MR 766 strain) infection with or without drug treatment. Scale bars, 100 μm. The ZIKV infection rate is defined as the percentage of ZIKV E^+ cells. The proliferation rate is defined as the percentages of Ki67^+ cells. The cell apoptosis rate was defined as the percentage of cleaved-Caspase 3/CAS3^+ cells. The normalized cell viability was calculated by dividing the total cell number of each condition by the total cell number under mock infection conditions. (n=6). […] (K) Quantification of ZIKV infectious particles produced by ZIKV-infected hNPCs with or without compound treatment by the Vero cell reinfection assay. […] (M and N) Immunocytochemistry analysis (M) and quantification of the infection rate (N) of hNPCs at 72 h after ZIKV (PRVABC59 strain) infection with or without drug treatment (n=6). Scale bars, 100 μm. p values were calculated by one-way repeated measures ANOVA with a Bonferroni test for multiple comparisons. *p<0.05, **p<0.01 and ***p<0.001. […]

SMILES	production of infectious ZIKV, Vero cell re-infection assay
CN1CCC2=C[C@H](O)[C@H]3OC(=O)c4cc5c(cc4[C@H]3[C@@H]21)OCO5 [HH, hippeastrine hydrobromide]	significantly suppressed
CCN(CC)Cc1cc(Nc2ccnc3cc(Cl)ccc23)ccc1O [AQ, amodiaquine dihydrochloride dihydrate]	significantly suppressed
